Consider 16 molecules from ChEMBL document CHEMBL5291721, “A preclinical secondary pharmacology resource illuminates target-adverse drug reaction associations of marketed drugs” (Nat Commun, 2023).

For one experiment, the target named is D(1A) dopamine receptor (Homo sapiens, UniProt P21728).
In experiment [1] the target is T1, Alpha-1A adrenergic receptor (Homo sapiens, UniProt P35348).
T1 sequence (P35348 whole entry): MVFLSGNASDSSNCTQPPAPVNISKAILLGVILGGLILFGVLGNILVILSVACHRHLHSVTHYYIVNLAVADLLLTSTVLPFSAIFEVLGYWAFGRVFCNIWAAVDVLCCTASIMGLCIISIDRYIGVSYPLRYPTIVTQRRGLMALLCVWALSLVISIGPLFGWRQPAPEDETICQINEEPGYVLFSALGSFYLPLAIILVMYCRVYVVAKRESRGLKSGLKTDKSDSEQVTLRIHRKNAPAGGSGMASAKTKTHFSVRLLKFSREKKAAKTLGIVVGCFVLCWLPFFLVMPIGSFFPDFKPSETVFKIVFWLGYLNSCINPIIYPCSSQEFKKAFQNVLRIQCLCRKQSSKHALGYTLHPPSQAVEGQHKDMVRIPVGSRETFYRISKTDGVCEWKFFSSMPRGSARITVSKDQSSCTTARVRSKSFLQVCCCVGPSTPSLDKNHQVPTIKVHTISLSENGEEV

Experiment [2] addresses T2, Retinoic acid receptor alpha (Homo sapiens, UniProt P10276).
T2 sequence (P10276 whole entry): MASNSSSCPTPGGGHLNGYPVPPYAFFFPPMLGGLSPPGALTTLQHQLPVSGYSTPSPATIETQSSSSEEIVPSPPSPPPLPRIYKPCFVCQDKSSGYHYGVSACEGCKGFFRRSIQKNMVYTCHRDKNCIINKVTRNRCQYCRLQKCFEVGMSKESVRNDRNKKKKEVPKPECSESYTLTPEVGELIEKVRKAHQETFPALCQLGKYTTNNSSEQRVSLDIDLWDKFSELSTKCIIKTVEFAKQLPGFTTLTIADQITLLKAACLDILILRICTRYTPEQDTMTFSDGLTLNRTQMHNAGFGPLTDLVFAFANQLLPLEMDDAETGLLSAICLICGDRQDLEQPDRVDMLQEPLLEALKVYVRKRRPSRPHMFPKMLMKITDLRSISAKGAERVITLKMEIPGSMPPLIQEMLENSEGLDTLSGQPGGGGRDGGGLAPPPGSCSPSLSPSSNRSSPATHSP
The format is functional, cell-based.

The target of experiment [3] is T3, Oxysterols receptor LXR-alpha (Homo sapiens, UniProt Q13133).
T3 sequence (Q13133 whole entry): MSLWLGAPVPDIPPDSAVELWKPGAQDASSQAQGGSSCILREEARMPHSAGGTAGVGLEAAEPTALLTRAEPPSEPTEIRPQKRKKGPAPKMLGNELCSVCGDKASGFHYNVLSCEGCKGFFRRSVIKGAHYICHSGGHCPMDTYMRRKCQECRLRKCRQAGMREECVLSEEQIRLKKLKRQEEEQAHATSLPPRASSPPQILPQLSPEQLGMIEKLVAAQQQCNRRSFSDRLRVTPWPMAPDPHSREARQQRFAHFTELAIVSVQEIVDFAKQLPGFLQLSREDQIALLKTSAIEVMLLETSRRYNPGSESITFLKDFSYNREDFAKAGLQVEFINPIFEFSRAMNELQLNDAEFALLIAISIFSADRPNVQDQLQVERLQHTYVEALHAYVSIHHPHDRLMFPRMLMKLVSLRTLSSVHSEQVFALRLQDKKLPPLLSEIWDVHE
The experiment is classed as functional.

The target in experiment [4] is T4, Bile acid receptor (Homo sapiens, UniProt Q96RI1).
T4 sequence (Q96RI1 whole entry): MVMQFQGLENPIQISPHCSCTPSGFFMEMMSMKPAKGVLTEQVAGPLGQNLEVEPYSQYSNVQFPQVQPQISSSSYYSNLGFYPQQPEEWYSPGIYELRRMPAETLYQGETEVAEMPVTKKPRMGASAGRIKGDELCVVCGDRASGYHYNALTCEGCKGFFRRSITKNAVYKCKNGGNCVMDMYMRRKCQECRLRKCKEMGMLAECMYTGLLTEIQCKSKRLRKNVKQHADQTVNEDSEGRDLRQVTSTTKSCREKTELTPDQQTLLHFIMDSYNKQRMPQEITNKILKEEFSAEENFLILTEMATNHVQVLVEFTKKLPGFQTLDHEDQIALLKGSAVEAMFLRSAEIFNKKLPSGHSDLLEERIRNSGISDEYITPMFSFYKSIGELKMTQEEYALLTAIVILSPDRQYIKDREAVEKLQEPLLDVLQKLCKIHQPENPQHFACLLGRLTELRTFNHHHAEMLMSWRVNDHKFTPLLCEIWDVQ
The experiment is classed as functional.

The target of experiment [5] is T5, Retinoic acid receptor gamma (Homo sapiens, UniProt P13631).
T5 sequence (P13631 whole entry): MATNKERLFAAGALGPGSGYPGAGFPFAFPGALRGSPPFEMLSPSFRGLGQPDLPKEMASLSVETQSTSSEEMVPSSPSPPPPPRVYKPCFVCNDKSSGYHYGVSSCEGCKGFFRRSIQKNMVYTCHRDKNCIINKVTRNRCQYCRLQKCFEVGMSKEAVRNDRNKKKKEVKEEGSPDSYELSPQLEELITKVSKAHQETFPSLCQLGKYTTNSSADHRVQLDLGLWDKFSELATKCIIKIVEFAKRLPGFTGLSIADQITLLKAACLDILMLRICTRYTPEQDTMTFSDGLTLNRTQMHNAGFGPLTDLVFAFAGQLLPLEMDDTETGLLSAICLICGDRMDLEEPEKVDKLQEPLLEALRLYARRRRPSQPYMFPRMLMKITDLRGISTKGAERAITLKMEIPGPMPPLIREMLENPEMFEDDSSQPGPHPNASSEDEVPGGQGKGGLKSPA
The experiment is classed as functional, cell-based.

Experiment [6] concerns the target T4, Bile acid receptor. The experiment is classed as functional. The source holds these as a separate data set.
In another experiment the target is D(1B) dopamine receptor (Homo sapiens, UniProt P21918).
D(1B) dopamine receptor, sequence (P21918 whole entry): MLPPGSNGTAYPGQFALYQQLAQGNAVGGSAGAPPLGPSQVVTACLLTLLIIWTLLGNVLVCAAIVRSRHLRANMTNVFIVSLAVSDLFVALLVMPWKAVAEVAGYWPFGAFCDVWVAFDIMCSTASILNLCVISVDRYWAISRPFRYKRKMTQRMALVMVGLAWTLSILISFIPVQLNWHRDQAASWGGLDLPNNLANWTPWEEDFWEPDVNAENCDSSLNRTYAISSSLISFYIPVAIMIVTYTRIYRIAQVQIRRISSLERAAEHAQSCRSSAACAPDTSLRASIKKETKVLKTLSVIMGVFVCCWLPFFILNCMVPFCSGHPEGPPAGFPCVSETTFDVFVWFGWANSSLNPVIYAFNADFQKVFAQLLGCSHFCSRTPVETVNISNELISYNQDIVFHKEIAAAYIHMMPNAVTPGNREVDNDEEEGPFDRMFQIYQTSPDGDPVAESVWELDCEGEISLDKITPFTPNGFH
In experiment [7] the target is 5-hydroxytryptamine receptor 2A (Homo sapiens, UniProt P28223).
5-hydroxytryptamine receptor 2A, sequence (P28223 whole entry): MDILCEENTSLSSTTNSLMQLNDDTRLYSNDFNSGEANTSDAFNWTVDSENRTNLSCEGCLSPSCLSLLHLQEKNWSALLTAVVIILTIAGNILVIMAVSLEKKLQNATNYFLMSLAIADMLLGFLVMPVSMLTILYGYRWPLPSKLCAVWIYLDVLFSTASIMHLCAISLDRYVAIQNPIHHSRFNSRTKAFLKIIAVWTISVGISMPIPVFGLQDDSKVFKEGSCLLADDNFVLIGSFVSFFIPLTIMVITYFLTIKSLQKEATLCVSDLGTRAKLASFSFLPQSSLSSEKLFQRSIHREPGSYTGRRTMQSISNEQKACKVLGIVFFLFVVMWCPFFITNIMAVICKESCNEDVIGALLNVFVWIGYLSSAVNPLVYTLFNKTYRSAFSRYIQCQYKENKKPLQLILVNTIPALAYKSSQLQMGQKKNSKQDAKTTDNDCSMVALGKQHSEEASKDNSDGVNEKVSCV
Also: assay procedure not described here.

D(1A) dopamine receptor, sequence (P21728 whole entry): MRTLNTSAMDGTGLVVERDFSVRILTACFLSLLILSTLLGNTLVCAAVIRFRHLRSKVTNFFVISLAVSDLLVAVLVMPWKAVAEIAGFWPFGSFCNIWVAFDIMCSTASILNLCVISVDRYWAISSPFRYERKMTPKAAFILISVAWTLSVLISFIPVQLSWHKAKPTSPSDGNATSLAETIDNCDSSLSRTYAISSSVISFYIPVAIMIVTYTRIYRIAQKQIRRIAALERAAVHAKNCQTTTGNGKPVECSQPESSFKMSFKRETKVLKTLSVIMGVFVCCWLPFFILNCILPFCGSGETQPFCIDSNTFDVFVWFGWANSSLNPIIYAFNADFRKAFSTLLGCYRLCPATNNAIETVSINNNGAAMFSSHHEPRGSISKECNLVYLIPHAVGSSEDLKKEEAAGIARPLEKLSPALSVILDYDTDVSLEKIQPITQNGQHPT

For `O=C(Nc1cccc2c(=O)cc(-c3nnn[nH]3)oc12)c1ccc(OCCCCc2ccccc2)cc1`, the AC50 turned out to be 2.88 µM at D(1A) dopamine receptor and 13.3 µM in [1].
Take `CC(/C=C1\SC(=S)N(CC(=O)O)C1=O)=C\c1ccccc1`: the AC50 (in [2]; in [3]; on Bile acid receptor [4]; in experiment [5]; at Bile acid receptor [6]) was over 30 µM in each case.
Turning to `CC1(C)S[C@@H]2[C@H](NC(=O)[C@H](N)c3ccc(O)cc3)C(=O)N2[C@H]1C(=O)O` [AMOXICILLIN], the AC50 in [2] is over 30 µM; at D(1B) dopamine receptor, over 10 µM; in experiment [3] it was over 30 µM; on Bile acid receptor [4], over 30 µM; in experiment [5] it was over 30 µM; on Bile acid receptor [6], over 30 µM.
In [7], `O=C1CN2Cc3c(ccc(Cl)c3Cl)N=C2N1` [ANAGRELIDE] had a half-maximal activity concentration (AC50) of over 10 µM.
For the molecule `COC(=O)[C@H](c1ccccc1Cl)N1CCc2sccc2C1` [CLOPIDOGREL], the AC50 at D(1B) dopamine receptor was over 10 µM.
With `CCC(=O)O[C@@H](O[P@](=O)(CCCCc1ccccc1)CC(=O)N1C[C@H](C2CCCCC2)C[C@H]1C(=O)O)C(C)C` [FOSINOPRIL], the concentration at half-maximal activity (AC50) on D(1A) dopamine receptor was 21.6 µM; in experiment [1], over 30 µM.
`Cc1cnc(NC(=O)C2=C(O)c3ccccc3S(=O)(=O)N2C)s1` [MELOXICAM] had an AC50 on D(1B) dopamine receptor of over 10 µM.
On to `CN(C)c1cc(CNCC(C)(C)C)c(O)c2c1C[C@H]1C[C@H]3[C@H](N(C)C)C(O)=C(C(N)=O)C(=O)[C@@]3(O)C(O)=C1C2=O` [OMADACYCLINE], for which the half-maximal activity concentration (AC50) (on D(1A) dopamine receptor; in experiment [1]) was over 30 µM throughout.
Take `CNC[C@H](O)c1cccc(O)c1` [PHENYLEPHRINE]: the AC50 in experiment [7] was over 10 µM.
In experiment [7], `CC(C)C[C@H](CN)CC(=O)O` [PREGABALIN] displayed an AC50 of over 10 µM.
For `CNC(=O)c1cc(Oc2ccc(NC(=O)Nc3ccc(Cl)c(C(F)(F)F)c3)c(F)c2)ccn1` [REGORAFENIB], the AC50 in experiment [2] was over 30 µM; in experiment [3], over 30 µM; on Bile acid receptor [4] it was over 30 µM; at D(1A) dopamine receptor, 4.15 µM; in experiment [5] it was over 30 µM; in [1] it was over 30 µM. The molecule further registered an AC50 at Bile acid receptor [6] of 7.2 µM.
For the molecule `CCOc1cc(CC(=O)N[C@@H](CC(C)C)c2ccccc2N2CCCCC2)ccc1C(=O)O` [REPAGLINIDE], the AC50 in [2] was over 30 µM; in [3] it was over 30 µM; at Bile acid receptor [4] it was over 30 µM; in experiment [5], over 30 µM; at Bile acid receptor [6], 6.5 µM.
With `CCCN(CCC)CCc1cccc2c1CC(=O)N2` [ROPINIROLE], in [7], the AC50 is over 10 µM.
`CCCCNc1ccc(C(=O)OCCN(C)C)cc1` [TETRACAINE] yielded an AC50 at D(1B) dopamine receptor of over 10 µM.
In the case of `CN1CCN(CCCN2c3ccccc3Sc3ccc(S(=O)(=O)N(C)C)cc32)CC1` [THIOPROPERAZINE], the AC50 is over 30 µM at D(1A) dopamine receptor and 0.003 µM in [1].
`CC1(C)O[C@@H]2[C@@H](CO[C@@]3(COS(N)(=O)=O)OC(C)(C)O[C@@H]23)O1` [TOPIRAMATE] displayed an AC50 in experiment [7] of over 10 µM.
